Laboratory results reported in ChEMBL document CHEMBL6087420, “Synthesis and pharmacodynamic evaluation of 2-aminoindole derivatives against influenza A virus in vitro/vivo” (Eur J Med Chem, 2025).
Activity calls are given as the source filed them. The rule behind the calls is not given here.

Columns and labels:
[1] = Cytotoxicity against dog MDCK cells after 72 hrs incubation by MTT assay; format: toxicity, cell-based, Canis lupus familiaris
[2] = test system: Influenza A virus; assay: Anti-influenza activity against influenza A virus H1NI (A/Weiss/43) infected in dog MDCK cells assessed as virus inhibition rate at 0.625 uM incubated for 72 hrs by MTT assay; format: functional, organism-based
[3] = test system: Influenza A virus; assay: Anti-influenza activity against influenza A virus H1NI (A/Weiss/43) infected in dog MDCK cells assessed as virus inhibition rate at 100 uM incubated for 72 hrs by MTT assay; format: functional, organism-based
[4] = test system: Influenza A virus; assay: Anti-influenza activity against influenza A virus H1NI (A/Weiss/43) infected in dog MDCK cells assessed as virus inhibition rate incubated for 72 hrs by MTT assay; format: functional, organism-based
[5] = test system: Influenza A virus; assay: Anti-influenza activity against influenza A virus H1NI (A/Virginia/ATCC2/2009) infected in dog MDCK cells incubated for 72 hrs by MTT assay; format: functional, organism-based
[6] = Selectivity index, ratio of CC50 for dog MDCK cells to EC50 for antiviral activity against Influenza A virus H1N1 (A/Weiss/43) infected in MDCK cells; format: toxicity, cell-based
[7] = Selectivity index, ratio of CC50 for dog MDCK cells to EC50 for antiviral activity against Influenza A virus […] H3N2 (A/California/2014) infected in MDCK cells; format: toxicity, cell-based; conditions: read-out: Selectivity Index
[8] = test system: Influenza A virus; assay: Anti-influenza activity against influenza A virus H3N2 (A/California/2014) infected in dog MDCK cells incubated for 72 hrs by MTT assay; format: functional, organism-based
[9] = Selectivity index, ratio of CC50 for dog MDCK cells to EC50 for antiviral activity against Influenza A virus H1NI (A/Virginia/ATCC2/2009) infected in MDCK cells; format: toxicity, cell-based; conditions: read-out: Selectivity Index
[10] = test system: Influenza A virus; assay: Inhibition of influenza A virus infection induced apoptosis in MDCK cells infected with influenza virus assessed as viable cells at 50 uM incubated for 36 hrs by AnnexinV-FITC/PI staining based flow cytometry (reference value: 66.9%); format: functional
[11] = test system: Influenza A virus; assay: Inhibition of influenza A virus infection induced apoptosis in MDCK cells infected with influenza virus assessed as early apoptotic cells at 50 uM incubated for 36 hrs by AnnexinV-FITC/PI staining based flow cytometry (reference value: 18.2%); format: functional; design: scale not given: the % may be the effect or the level left
[12] = test system: Influenza A virus; assay: Inhibition of influenza A virus infection induced apoptosis in MDCK cells infected with influenza virus assessed as late apoptotic cells at 50 uM incubated for 36 hrs by AnnexinV-FITC/PI staining based flow cytometry (reference value: 13.2%); format: functional; design: scale not given: the % may be the effect or the level left
[13] = test system: Influenza A virus; assay: Inhibition of influenza A virus infection induced apoptosis in MDCK cells infected with influenza virus assessed as necrotic cells at 50 uM incubated for 36 hrs by AnnexinV-FITC/PI staining based flow cytometry (reference value: 1.79%); format: functional; design: scale not given: the % may be the effect or the level left

| Structure (SMILES) | CC50 at 72 h [1] | Virus inhibition rate at 0.625 uM [2] | Activity [3] | also measured |
| --- | --- | --- | --- | --- |
| CS(=O)(=O)Nc1c(-c2ccccc2)c2ccccc2n1S(=O)(=O)c1ccc(Cl)cc1 | 14.6 µM | Not_active | inactive | – |
| Cc1ccc(S(=O)(=O)n2c(NS(C)(=O)=O)c(-c3ccccc3F)c3ccccc32)cc1 | < 6.25 µM | Not_active | inactive | – |
| CS(=O)(=O)Nc1c(-c2ccccc2)c2ccccc2n1S(=O)(=O)c1ccccc1 | 36.4 µM | Not_active | inactive | – |
| Cc1ccc(S(=O)(=O)n2c(NS(C)(=O)=O)c(-c3ccccc3)c3cc(F)ccc32)cc1 | 24.4 µM | Not_active | inactive | – |
| Cc1ccc(S(=O)(=O)n2c(NS(=O)(=O)c3ccccc3)c(-c3ccccc3)c3ccccc32)cc1 | 109 µM | Not_active | inactive | – |
| CCOC(=O)C1=C[C@@H](OC(CC)CC)[C@H](NC(C)=O)[C@@H](N)C1 [OSELTAMIVIR] | > 800 µM | – | – | EC50 [4]: 7.1 µM; EC50 ([5]; Influenza A virus, H1NI (A/Virginia/ATCC2/2009), MDCK, 72 h): 11.7 µM; selectivity ratio ([6]; read-out: Selectivity Index): > 107; selectivity ratio [7]: > 30.4; EC50 [8]: 26.3 µM; selectivity ratio [9]: > 68.6; Activity [10]: 91.7%; Activity [11]: 3.85%; Activity [12]: 2.33%; Activity [13]: 2.11% |
| Cc1ccc(S(=O)(=O)n2c(NS(=O)(=O)c3ccc(Cl)cc3)c(-c3ccccc3)c3ccccc32)cc1 | < 6.25 µM | Not_active | inactive | – |
| Cc1ccc(S(=O)(=O)n2c(NS(C)(=O)=O)c(-c3ccccc3)c3cc(Br)ccc32)cc1 | < 6.25 µM | Not_active | inactive | – |
| Cc1ccc(S(=O)(=O)n2c(NS(=O)(=O)c3ccc([N+](=O)[O-])cc3)c(-c3ccccc3)c3ccccc32)cc1 | < 6.25 µM | Not_active | inactive | – |
| Cc1ccc(S(=O)(=O)n2c(NS(C)(=O)=O)c(-c3ccc(Br)cc3)c3ccccc32)cc1 | 13.2 µM | Not_active | inactive | – |
| Cc1ccc(S(=O)(=O)n2c(NS(C)(=O)=O)c(-c3ccccc3)c3cc(C)ccc32)cc1 | 21.3 µM | Not_active | inactive | – |
| Cc1ccc(S(=O)(=O)n2c(NS(C)(=O)=O)c(-c3cccc(Cl)c3)c3ccccc32)cc1 | 67.1 µM | Not_active | inactive | – |
| Cc1ccc(S(=O)(=O)n2c(NS(C)(=O)=O)c(-c3cccc(F)c3)c3ccccc32)cc1 | 55 µM | Not_active | inactive | – |
| Cc1ccc(S(=O)(=O)n2c(NS(C)(=O)=O)c(-c3ccccc3)c3ccc(C)cc32)cc1 | 5.45 µM | Not_active | inactive | – |
| COc1ccc2c(-c3ccccc3)c(NS(C)(=O)=O)n(S(=O)(=O)c3ccc(C)cc3)c2c1 | 31.6 µM | Not_active | inactive | – |
| Cc1ccc(S(=O)(=O)Nc2c(-c3ccccc3)c3ccccc3n2S(=O)(=O)c2ccc(C)cc2)cc1 | 414 µM | Not_active | inactive | – |
| COc1ccc(S(=O)(=O)n2c(NS(C)(=O)=O)c(-c3ccccc3)c3ccccc32)cc1 | 12.6 µM | Not_active | inactive | – |

| Structure (SMILES) | CC50 at 72 h [1] | Virus inhibition rate at 0.625 uM [2] | Activity [3] | also measured |
| --- | --- | --- | --- | --- |
| Cc1ccc(-c2c(NS(C)(=O)=O)n(S(=O)(=O)c3ccc(C)cc3)c3ccccc23)cc1 | 14.1 µM | Not_active | inactive | – |
| Cc1ccc(S(=O)(=O)n2c(NS(C)(=O)=O)c(-c3ccc(Cl)cc3)c3ccccc32)cc1 | 14.8 µM | Not_active | inactive | – |
| Cc1ccc(S(=O)(=O)n2c(NS(C)(=O)=O)c(-c3ccccc3)c3c(C)cc(C)cc32)cc1 | 357 µM | Not_active | inactive | – |
| Cc1ccc(S(=O)(=O)n2c(NS(C)(=O)=O)c(-c3cccs3)c3ccccc32)cc1 | 53.6 µM | Not_active | inactive | – |
| COc1ccc(-c2c(NS(C)(=O)=O)n(S(=O)(=O)c3ccc(C)cc3)c3ccccc23)cc1 | 43.6 µM | – | – | EC50 [4]: 2 µM; selectivity ratio ([6]; read-out: Ratio CC50/EC50): 21.8 |
| NC(=O)c1ncn([C@@H]2O[C@H](CO)[C@@H](O)[C@H]2O)n1 [RIBAVIRIN] | 513 µM | – | – | EC50 [4]: 7.33 µM; EC50 ([5]; mdck): 8.2 µM; selectivity ratio ([6]; read-out: Selectivity Index): 70; selectivity ratio [7]: 40; EC50 [8]: 12.8 µM; selectivity ratio [9]: 62.6; Activity [10]: 92.8%; Activity [11]: 3.8%; Activity [12]: 1.62%; Activity [13]: 1.74% |
| Cc1ccc(S(=O)(=O)n2c(NS(C)(=O)=O)c(-c3ccccc3)c3ccc(F)cc32)cc1 | 22.8 µM | Not_active | inactive | – |
| Cc1ccc(S(=O)(=O)n2c(NS(C)(=O)=O)c(-c3cccc(C)c3)c3ccccc32)cc1 | 16.5 µM | Not_active | inactive | – |
| Cc1ccc(S(=O)(=O)n2c(NS(C)(=O)=O)c(-c3ccccc3)c3cc(Cl)ccc32)cc1 | 12.8 µM | Not_active | inactive | – |
| CS(=O)(=O)Nc1c(-c2ccccc2)c2ccccc2n1S(C)(=O)=O | 341 µM | Not_active | inactive | – |
| Cc1ccc(S(=O)(=O)n2c(NS(C)(=O)=O)c(-c3ccc(F)cc3)c3ccccc32)cc1 | 41 µM | Not_active | inactive | – |
| Cc1ccc(S(=O)(=O)n2c(NS(C)(=O)=O)c(-c3ccccc3)c3ccccc32)cc1 | 59 µM | Not_active | inactive | – |
| Cc1ccc(S(=O)(=O)n2c(NS(C)(=O)=O)c(-c3ccccc3C)c3ccccc32)cc1 | 43 µM | Not_active | inactive | – |
| CS(=O)(=O)Nc1c(-c2ccccc2)c2ccccc2n1S(=O)(=O)c1ccc([N+](=O)[O-])cc1 | 55.6 µM | Not_active | inactive | – |
| Cc1ccc(S(=O)(=O)n2c(NS(C)(=O)=O)c(-c3ccccc3Cl)c3ccccc32)cc1 | 20.9 µM | Not_active | inactive | – |
| COc1ccc(S(=O)(=O)Nc2c(-c3ccccc3)c3ccccc3n2S(=O)(=O)c2ccc(C)cc2)cc1 | 434 µM | Not_active | inactive | – |
| Cc1ccc(S(=O)(=O)n2c(NS(C)(=O)=O)c(-c3cccc(Br)c3)c3ccccc32)cc1 | 16.9 µM | Not_active | inactive | – |
